One assay relates to MKN45. Description: Cell proliferation by MTS method, MKN45. The format is cell-based. The settings on record: Homo sapiens, MKN-45; Table 1, MKN45; read-out: Tumour cell proliferative activity/IC50(nM) gastric Cancer MKN45. The text has this:
(§1) (2) Detection of Cell Proliferation by MTS Method
(§2) The MTS assay is a method for indirectly determining the number of living cells via colourimetric method. MTS is a newly synthesised tetrazole compound that reflects cell viability, which can be reduced by succinate dehydrogenase in the mitochondria of living cells to an orange-coloured formazan with an absorbance of the reduced product measured at 490 nm being in proportion to the number of living cells, thus reflecting the cell viability. This assay can be used to evaluate the effect of the compound on the proliferation of pancreatic cancer cells, thereby determining the inhibitory effect of the compound on the proliferation of pancreatic cancer cells and to calculate the IC^50. Each cells were inoculated uniformly into a 96-well plate at a density of 1-20×10^3 cells/well, 100 μL per well, and placed in a constant temperature incubator until the cells adhered to the wall. The control group was added with the corresponding medium and the experimental groups were given different concentrations of the compound prepared by the examples of the present invention, and the cells were taken out 24-96 h after administration for observing the cell state under a microscope. Under light-proof conditions, MTS was added and well mixed, the mixture was placed in a constant temperature incubator at 37° C., and the light absorption value were measured using an enzyme marker at 490 nm and the experiment was repeated for three times, IC50 was calculated with GraphPad5 Prism software.
(Tetrazolium dyes change colour on reduction, which living cells bring about.)

The target of a further assay is STAT3 protein (Homo sapiens, UniProt P40763). Description: Binding activity to STAT3 protein by microscale thermophoresis (MST). The settings on record: purified STAT3 recombinant protein. The source says:
(1) Determination of Binding Activities of Compounds to STAT3 Protein by Microscale Thermophoresis (MST) Method
The microscale thermophoresis (MST) technique is a simple, rapid, and accurate method for quantifying biomolecular interactions. It can measure the movement of molecules in a microscopic temperature gradient field, as well as detect changes of molecular hydration shell, charge and size. When the Nanotemper microscale thermophoresis instrument locally heated by a infrared laser, molecules will move in a directional manner, then the molecular distribution ratio in the temperature gradient field are analyzed by a fluorescence to detect whether a small molecule compound binds to a target protein. The experimental operation is as follows: firstly, compounds to be tested are diluted in a gradient using MST test buffer, total 16 concentrations being configured; subsequently, the purified STAT3 recombinant protein is labeled using the HIS tag labeling kit, and the final concentration of the labeled protein is 100-200 nM; the labeled STAT3 proteins are well mixed with the diluted compounds and incubated and protected from light for 30 minutes; finally the samples were loaded by capillary tube and detected on the instrument. The binding constants (K^D) of small molecules to STAT3 protein were analyzed by Mo. analysis software.

A further assay has as its system Huh7. As to the kind of experiment: Cell proliferation by MTS method, Huh7. In kind it is cell-based. Conditions: Homo sapiens, Huh-7; Table 1, Huh7; read-out: Tumour cell proliferative activity/IC50(nM) Liver Cancer Huh7.
Text: as §1, §2

The test system of another assay is HCC827. Description: Cell proliferation by MTS method, HCC827. The settings on record: Homo sapiens; Table 1, HCC827; read-out: Tumour cell proliferative activity/IC50(nM) Lung Cancer HCC827. In kind it is cell-based.
Text: as §1, §2

The test system of another assay is Capan-2. Description: Cell proliferation by MTS method, Capan-2. Conditions: Homo sapiens; Table 1, Capan-2; read-out: Tumour cell proliferative activity/IC50(nM) Pancreatic Cancer Capan-2. The format is cell-based.
Text: as §1, §2

A value given as a limit tells only on which side of the number the result lay.

Data on 15 molecules can be found in US12448372B2, “Class of triaromatic compounds targeting bifunctional phosphorylation site of STAT3 and applications thereof” (SHANGHAI YUYAO BIOTECH LTD., priority 2019, dated 2025).

The term Kd denotes the free concentration of one partner at which half of the binding sites on the other are occupied at equilibrium, for simple one-to-one binding.

Sequence of STAT3 protein (P40763 whole entry): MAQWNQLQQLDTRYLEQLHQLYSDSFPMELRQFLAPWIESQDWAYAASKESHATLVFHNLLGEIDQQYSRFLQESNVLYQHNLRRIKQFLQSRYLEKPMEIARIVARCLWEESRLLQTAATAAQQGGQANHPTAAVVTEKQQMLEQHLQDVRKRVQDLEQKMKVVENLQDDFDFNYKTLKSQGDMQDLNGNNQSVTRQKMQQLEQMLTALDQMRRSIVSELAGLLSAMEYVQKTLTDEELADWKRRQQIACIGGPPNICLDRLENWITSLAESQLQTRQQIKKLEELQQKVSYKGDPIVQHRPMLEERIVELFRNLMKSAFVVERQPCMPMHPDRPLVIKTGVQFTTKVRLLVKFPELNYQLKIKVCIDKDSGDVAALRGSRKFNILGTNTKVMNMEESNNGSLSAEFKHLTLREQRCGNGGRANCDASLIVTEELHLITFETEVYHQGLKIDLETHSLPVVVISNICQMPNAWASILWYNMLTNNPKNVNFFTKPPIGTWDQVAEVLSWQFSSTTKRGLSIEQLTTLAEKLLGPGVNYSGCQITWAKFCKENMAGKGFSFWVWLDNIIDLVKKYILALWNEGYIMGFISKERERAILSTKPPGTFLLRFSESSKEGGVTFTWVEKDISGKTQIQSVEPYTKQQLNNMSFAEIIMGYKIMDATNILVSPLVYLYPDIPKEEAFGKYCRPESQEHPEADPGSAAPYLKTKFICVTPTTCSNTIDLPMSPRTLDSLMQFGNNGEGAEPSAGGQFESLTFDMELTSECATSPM

For the molecule `O=C(c1cc2ccc(Oc3cnc(-c4nc(-c5ccc(C(F)(F)F)cc5)no4)cn3)cc2[nH]1)N1CCN(Cc2ccc(OCC(F)(F)F)cc2)CC1` [Example 14, (6-((5-(3-(4-(trifluoromethyl)phenyl)-1,2,4-oxadiazol-5-yl)pyrazin-2-yl)oxy)-1H-indol-2-yl) (4-(4-(2,2,2-trifluoroethoxy)benzyl)piperazin-1-yl)methanone], the IC50 in the assay on MKN45, with Huh7, in the assay on HCC827 and in the assay with Capan-2 was below 100 nM each time. Moreover, on STAT3 protein, the dissociation constant (Kd) was below 100 nM.
`CCn1c(C(=O)N2CCN(Cc3ccc(OCC(F)(F)F)cc3)CC2)cc2ccc(Oc3cnc(-c4nc(-c5ccc(C(F)(F)F)cc5)no4)cn3)cc21` [Example 15, (1-ethyl-6-((5-(3-(4-(trifluoromethyl)phenyl)-1,2,4-oxadiazol-5-yl)pyrazin-2-yl)oxy)-1H-indol-2-yl)(4-(4-(2,2,2-trifluoromethoxy)benzyl)piperazin-1-yl)methanone]: the IC50 in the assay with MKN45, in the assay on Huh7, in the assay on HCC827 and in the assay with Capan-2 was below 10 nM in each case. The equilibrium dissociation constant (Kd) at STAT3 protein was below 10 nM.
`CCCn1c(C(=O)N2CCN(Cc3ccc(OCC(F)(F)F)cc3)CC2)cc2ccc(Oc3cnc(-c4nc(-c5ccc(C(F)(F)F)cc5)no4)cn3)cc21` [Example 16, (1-propyl-6-((5-(3-(4-(trifluoromethyl)phenyl)-1,2,4-oxadiazol-5-yl)pyrazin-2-yl)oxy)-1H-indol-2-yl)(4-(4-(2,2,2-trifluoromethoxy)benzyl)piperazin-1-yl)methanone]: the IC50 with MKN45, in the assay on Huh7, in the assay on HCC827 and with Capan-2 was below 100 nM throughout. The Kd at STAT3 protein is below 100 nM.
Take `C=CCn1c(C(=O)N2CCN(Cc3ccc(OCC(F)(F)F)cc3)CC2)cc2ccc(Oc3cnc(-c4nc(-c5ccc(C(F)(F)F)cc5)no4)cn3)cc21` [Example 17, (1-allyl-6-((5-(3-(4-(trifluoromethyl)phenyl)-1,2,4-oxadiazol-5-yl)pyrazin-2-yl)oxy)-1H-indol-2-yl) (4-(4-(2,2,2-trifluoromethoxy)benzyl)piperazin-1-yl)methanone]: the IC50 in the assay with MKN45, with Huh7, in the assay with HCC827 and with Capan-2 was below 10 nM in each case. Also, the Kd at STAT3 protein was below 10 nM.
For `COCCn1c(C(=O)N2CCN(Cc3ccc(OCC(F)(F)F)cc3)CC2)cc2ccc(Oc3cnc(-c4nc(-c5ccc(C(F)(F)F)cc5)no4)cn3)cc21` [Example 18, (1-(2-methoxyethyl)-6-((5-(3-(4-(trifluoromethyl)phenyl)-1,2,4-oxadiazol-5-yl)pyrazin-2-yl)oxy)-1H-indol-2-yl) (4-(4-(2,2,2-trifluoroethoxy)benzyl)piperazin-1-yl)methanone], the IC50 in the assay with MKN45, in the assay with Huh7, with HCC827 and in the assay with Capan-2 was below 100 nM throughout. The dissociation constant (Kd) at STAT3 protein is below 100 nM.
As to `CC(C)C(=O)n1c(C(=O)N2CCN(Cc3ccc(OCC(F)(F)F)cc3)CC2)cc2ccc(Oc3cnc(-c4nc(-c5ccc(C(F)(F)F)cc5)no4)cn3)cc21` [Example 19], the IC50 in the assay on MKN45, in the assay on Huh7, in the assay on HCC827 and in the assay on Capan-2 was below 10 nM each time. Also, the Kd at STAT3 protein is below 10 nM.
On to `COC(=O)Cn1c(C(=O)N2CCN(Cc3ccc(OCC(F)(F)F)cc3)CC2)cc2ccc(Oc3cnc(-c4nc(-c5ccc(C(F)(F)F)cc5)no4)cn3)cc21` [Example 20], for which the IC50 with MKN45, with Huh7, with HCC827 and in the assay on Capan-2 was below 1000 nM in each case. In addition, the dissociation constant (Kd) at STAT3 protein is below 1000 nM.
As to `CCOC(=O)Cn1c(C(=O)N2CCN(Cc3ccc(OCC(F)(F)F)cc3)CC2)cc2ccc(Oc3cnc(-c4nc(-c5ccc(C(F)(F)F)cc5)no4)cn3)cc21` [Example 21], the IC50 in the assay on MKN45, in the assay on Huh7, in the assay with HCC827 and in the assay on Capan-2 was below 1000 nM in each case. At STAT3 protein, the Kd is below 100 nM.
As for `O=C(c1cc2ccc(Oc3cnc(-c4nc(-c5ccc(C(F)(F)F)cc5)no4)cn3)cc2n1Cc1ccccc1)N1CCN(Cc2ccc(OCC(F)(F)F)cc2)CC1` [Example 22], the IC50 with MKN45, in the assay with Huh7, in the assay with HCC827 and with Capan-2 was below 1000 nM each time. Besides, on STAT3 protein, the dissociation constant (Kd) is below 100 nM.
For the molecule `Cn1c(C(=O)N2CCN(Cc3ccccc3)CC2)cc2ccc(Oc3cnc(-c4nc(-c5ccc(C(F)(F)F)cc5)no4)cn3)cc21` [Example 23, (4-benzylpiperazin-1-yl)(1-methyl-6-((5-(3-(4-(trifluoromethyl)phenyl)-1,2,4-oxadiazol-5-yl)pyrazin-2-yl)oxy)-1H-indol-2-yl)methanone], the IC50 in the assay on MKN45, with Huh7, in the assay on HCC827 and in the assay on Capan-2 was below 1000 nM each time. Further, the equilibrium dissociation constant (Kd) at STAT3 protein was below 100 nM.
For the molecule `Cc1cccc(CN2CCN(C(=O)c3cc4ccc(Oc5cnc(-c6nc(-c7ccc(C(F)(F)F)cc7)no6)cn5)cc4n3C)CC2)c1` [Example 24, (1-methyl-6-((5-(3-(4-(trifluoromethyl)phenyl)-1,2,4-oxadiazol-5-yl)pyrazin-2-yl)oxy)-1H-indol-2-yl) (4-(3-methylbenzyl)piperazin-1-yl)methanone], the IC50 in the assay with MKN45, in the assay with Huh7, in the assay on HCC827 and with Capan-2 was below 1000 nM in each case. Besides, the Kd on STAT3 protein was below 100 nM.
`Cc1ccc(CN2CCN(C(=O)c3cc4ccc(Oc5cnc(-c6nc(-c7ccc(C(F)(F)F)cc7)no6)cn5)cc4n3C)CC2)cc1` [Example 25, (1-methyl-6-((5-(3-(4-(trifluoromethyl)phenyl)-1,2,4-oxadiazol-5-yl)pyrazin-2-yl)oxy)-1H-indol-2-yl) (4-(4-methylbenzyl)piperazin-1-yl)methanone]: the IC50 in the assay with MKN45, in the assay with Huh7, in the assay on HCC827 and in the assay with Capan-2 was below 100 nM each time. The dissociation constant (Kd) at STAT3 protein is below 100 nM.
Take `Cn1c(C(=O)N2CCN(Cc3ccc(F)cc3)CC2)cc2ccc(Oc3cnc(-c4nc(-c5ccc(C(F)(F)F)cc5)no4)cn3)cc21` [Example 26, (4-(4-fluorobenzyl)piperazin-1-yl)(1-methyl-6-((5-(3-(4-(trifluoromethyl)phenyl)-1,2,4-oxadiazol-5-yl)pyrazin-2-yl)oxy)-1H-indol-2-yl)methanone]: the IC50 in the assay with MKN45, in the assay with Huh7, in the assay with HCC827 and in the assay with Capan-2 was below 1000 nM throughout. Moreover, the Kd at STAT3 protein was below 1000 nM.
Regarding `Cn1c(C(=O)N2CCN(Cc3ccc(Cl)cc3)CC2)cc2ccc(Oc3cnc(-c4nc(-c5ccc(C(F)(F)F)cc5)no4)cn3)cc21` [Example 27, (4-(4-chlorobenzyl)piperazin-1-yl)(1-methyl-6-((5-(3-(4-(trifluoromethyl)phenyl)-1,2,4-oxadiazol-5-yl)pyrazin-2-yl)oxy)-1H-indol-2-yl)methanone], the IC50 in the assay on MKN45, in the assay on Huh7, with HCC827 and with Capan-2 was below 100 nM throughout. On STAT3 protein, the Kd was below 100 nM.
Take `Cn1c(C(=O)N2CCN(Cc3ccc(Br)cc3)CC2)cc2ccc(Oc3cnc(-c4nc(-c5ccc(C(F)(F)F)cc5)no4)cn3)cc21` [Example 28, (4-(4-bromobenzyl)piperazin-1-yl)(1-methyl-6-((5-(3-(4-(trifluoromethyl)phenyl)-1,2,4-oxadiazol-5-yl)pyrazin-2-yl)oxy)-1H-indol-2-yl)methanone]: the IC50 in the assay on MKN45, with Huh7, in the assay with HCC827 and with Capan-2 was below 100 nM each time. Moreover, the dissociation constant Kd at STAT3 protein is below 100 nM.
